Test results from patent US20090142281A1, “Composition Comprising A Coupled Enzyme System” (priority 2005, published 2009).
Like-named read-outs stand apart in the source and are kept apart here.

Legend:
Type in all cases: biochemical
[1] = target: T1, Sorbitol oxidase (Streptomyces coelicolor, UniProt Q9ZBU1)
T1 construct: made in house; host or cells: Streptomyces lividans g3s3 (vector pKB105, PSMM-SOX)
Experimental: Sorbitol oxidase obtained using the methods described in Example 3-4, was tested for finding its activity with various polyol substrates. All substrates used in the assay were 55 mM in 100 mM phosphate buffer pH 7.0 at 25° C. The relative activity using sorbitol as (++++++=100%) is shown below in Table 1. In addition to these substrates, it is contemplated that other substrates, including, but not limited to glycerol, will find use in the present invention.

[2] = target: T1, Sorbitol oxidase; assay: Relative activity of sorbitol oxidase on xylitol and sorbitol (ABTS assay); conditions: rate of H2O2 production, substrate in excess, same amount of enzyme
Experimental: The commonly used horse radish peroxidase dye substrate ABTS was incorporated into an assay, measuring the production of H2O2 produced by HOX or GOX respectively. ABTS serves as a chromogenic substrate for peroxidase. Peroxidase in combination with H2O2 facilitates the electron transport from the chromogenic dye, which is oxidised to an intensely green/blue compound.
An assay mixture contained 266 μl sorbitol (Sigma P-5504, 0.055 M in 0.1 M sodium phosphate buffer, pH 6.3), (or alternative substrate, e.g. xylitol), 12 μl 2,2′-Azino-bis(3-ethylbenzothiozoline-6-Sulfonic acid) (ABTS) (Sigma A-9941, 5 mg/ml aqueous solution), 12 μl peroxidase (POD) (Sigma P-6782, 0.1 mg/ml in 0.1 M sodium phosphate buffer, pH 6.3) and 10 μl enzyme (SOX or HOX) aqueous solution.
The assay is performed at 25° C.
The incubation was started by the addition of glucose. The absorbance was monitored at 405 nm in an ELISA reader. A standard curve, based on varying concentrations of H2O2, was used for calculation of enzyme activity according to the definition above.
The purpose was to measure the difference in activity of sorbitol oxidase on D-sorbitol and D-xylitol. The ABTS assay was used as described previously to measure the rate of H2O2 production when both D-sorbitol and D-xylitol was in excess. The same amount of enzyme, as prepared in the previous examples was used in both cases. […]

[3] = test system: hydrogen peroxide production; assay: Synergy between the two enzymes: initial velocity of H2O2 production in 300 uL ABTS assay; conditions: further enzyme at 1× to 3000× excess over polyol oxidase; especially at dosages greater than 1×
Text: In the example below the amounts of enzyme are given as unit amounts.
A unit of HOX is the amount of enzyme that produced 1 umol H202/min when substrates are in excess.
A unit of GOX is the amount of enzyme that produced 1 umol H202/min when substrates are in excess.
A unit of SOX is the amount of enzyme that produced 1 umol H202/min when substrates are in excess.
The generated sugar will be the limiting factor for the secondary enzyme. As noted above the activity is given as a percentage value of SOX catalysing D-sorbitol when both D-sorbitol and oxygen is in excess.
Initial velocities were measured over 5 minutes in 300 uL ABTS assay (as described previously). The production of rate of hydrogen peroxide production was extrapolated from a standard curve. The measured activity, shown in FIG. 3 and FIG. 4 are given as a percentage value. 100% is defined as the rate of hydrogen peroxide production by sorbitol oxidase alone, when the substrates D-sorbitol and oxygen is in excess (Linear velocity curves)

[4] = In gel overlay activity assay (PMS/NBT) using sorbitol as substrate; conditions: native gel
Text: b) In gel overlay activity assay (PMS/NBT) using sorbitol as substrate.
The cell lysates were fractionated on a native gel that was further tested in an in-gel overlay activity assay using sorbitol as the substrate and an assay based on the PMS mediated reduction of NBT. […] The PMS/NBT is a diagnostic assay for flavoproteins where PMS=phenazine methosulfate is a redox mediator which is reduced by reduced FAD.

[5] = substrate 55 mM in 100 mM phosphate buffer pH 7.0 at 25° C., relative to sorbitol

T1 sequence (Q9ZBU1 other isoform, or with tags, fused parts or gaps): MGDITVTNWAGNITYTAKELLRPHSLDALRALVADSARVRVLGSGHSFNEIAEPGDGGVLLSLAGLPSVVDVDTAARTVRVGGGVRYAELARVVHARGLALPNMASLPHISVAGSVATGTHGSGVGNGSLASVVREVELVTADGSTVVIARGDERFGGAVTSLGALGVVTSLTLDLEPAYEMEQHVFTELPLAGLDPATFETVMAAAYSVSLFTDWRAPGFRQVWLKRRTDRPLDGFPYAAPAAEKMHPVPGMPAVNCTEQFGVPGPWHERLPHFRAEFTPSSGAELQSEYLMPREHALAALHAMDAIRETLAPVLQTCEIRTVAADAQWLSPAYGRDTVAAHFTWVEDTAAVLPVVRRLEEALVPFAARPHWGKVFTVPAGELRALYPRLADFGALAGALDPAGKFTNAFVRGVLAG

Molecule | Relative Activity (+, 0) [1, 5] | Relative activity% [2] [%] | Relative Activity (+, 0) ([1]; pH 7) | also measured
OC[C@@H](O)[C@@H](O)[C@H](O)[C@H](O)CO [D-Mannitol] | + + + | – | – | –
OC[C@@H](O)[C@@H](O)[C@H](O)[C@@H](O)CO [D-Sorbitol] | + + + + + + | 100 | – | –
OC[C@@H](O)[C@H](O)[C@@H](O)CO [D-Xylitol] | – | 47.6 | + + + + | –
OCCO [Ethylene glycol] | – | – | 0 | –
CC(O)CO (stereo not drawn) [Propylene glycol] | 0 | – | – | –
glucose oxidase [reference compound] | – | – | – | synergy in initial velocity of H2O2 production (FIG. 4) [3]: dramatic synergy; activity towards sorbitol (stained band) [4]: not active towards sorbitol
